The target of assay [1] is T1, HIV-1 integrase (Human immunodeficiency virus type 1 group M subtype B, UniProt P04585).
T1 construct: Expression and purification of the recombinant HIV-1 integrase in Escherichia coli; made in house; host or cells: Escherichia coli
Briefly: Integrase catalytic assay, 3′-processing (3′-P), 21 bp duplex substrate. In kind it is biochemical. To be noted: for IC50: In vitro IC50 21 bp substrate 3′-P; for inhibition at 333 µM: drug concentration of 333 μM. The protocol:
(§1) Recombinant HIV integrase and oligonucleotide substrates. Expression and purification of the recombinant HIV-1 integrase in Escherichia coli were performed according to (Leh et al., 2000; Marchand et al., 2001) with addition of 10% glycerol to all buffers. The preparation of the Q148C/SSS-mutant integrase will be described elsewhere (Johnson et al., 2005). The oligonucleotide substrates, except those used for the disulfide crosslinking (FIG. 5A), were purchased from Integrated DNA Technologies, Inc. (Coraville, Iowa) and purified by polyacrylamide gel. The single-stranded oligonucleotides were 5′-end labeled with [γ^32P]-ATP (Perkin Elmer, Wellesley, M A) and T4 polynucleotide kinase (New England BioLabs, Ipswich, M A). Unincorporated nucleotide was removed using mini Quick Spin Oligo columns (Roche Diagnostics, Indianapolis, Ind.). Substrates were obtained after annealing with complementary non-labeled oligonucleotides. The thiol-modified substrate (FIG. 5A) for disulfide crosslinking assay was synthesized as essentially described by W. Santos and G. Verdine (Department of Chemistry and Chemical Biology, Harvard University, Cambridge, Mass.) (They and Verdine, 2002).
(§2) Integrase catalytic assays. Reactions were performed in 10 μl with 300 nM of recombinant IN, 20 nM of the 5′-end [^32P]-labeled oligonucleotide substrates and inhibitors at the indicated concentrations. 10% DMSO was included in controls. Reactions were incubated for 40 min at 37° C. in a buffer containing a final concentration of 25 mM MOPS, pH 7.2, 25 mM NaCl, 14.3 mM β-mercaptoethanol and 7.5 mM of divalent cations (MgCl2 or MnCl2 as indicated). Reactions were stopped by addition of 20 μl loading dye (10 mM EDTA, 98% deionized formamide, 0.025% xylene cyanol and 0.025% bromophenol blue). Reactions were heated at 95° C. for 1 min before electrophoresis in 20% polyacrylamide-7 M urea gels. Gels were dried and reaction products were visualized and quantitated with a Molecular Dynamics PhosphorImager (Sunnyvale, Calif.). Densitometric analyses were performed using ImageQuant from the Molecular Dynamics software. The concentrations at which enzyme activity was reduced by 50% (IC50), was determined using “Prism” software (GraphPad Software, San Diego, Calif.) for nonlinear regression to fit dose-response data to logistic curve models.

The target of assay [2] is T1, HIV-1 integrase. Briefly: Integrase catalytic assay, strand transfer (ST), 21 bp duplex substrate. In kind it is biochemical. The note with it: for inhibition activity, ST, 21 bp substrate: drug concentration of 333 μM; for inhibition at 333 µM: read-out: inhibition activity, ST, 21 bp substrate. How it is done: as §1, §2
For assay [3], the target named is T1, HIV-1 integrase. Briefly: Strand transfer assay with preprocessed (19/21) DNA substrate. In kind it is biochemical. The note with it: for IC50: In vitro IC50 Preprocessed substrate; for inhibition at 333 µM: drug concentration of 333 μM. The protocol:
as §1, §2

For assay [4], the target named is T1, HIV-1 integrase. Put plainly: Disintegration assay with Y-oligomer substrate. In kind it is biochemical. To be noted: for IC50: In vitro IC50 Disintegration; for inhibition activity, disintegration: drug concentration of 333 μM; for inhibition at 333 µM: read-out: inhibition activity, disintegration. How it is done:
as §1, §2

The target in assay [5] is T2, Q148C/SSS-mutant integrase (Human immunodeficiency virus type 1 group M subtype B, UniProt P04585, C1203S/C1212S/C1427S/Q1295C).
T2 construct: 10 μM recombinant Q148C/SSS-mutant integrase was incubated with 10 μM DNA substrate; made in house
Briefly: biochemical. The note with it: drug 1 mM; Mg2+ or Mn2+ (FIG. 5B). In kind it is binding, HIV-1.
Protocol: Briefly, 10 μM recombinant Q148C/SSS-mutant integrase was incubated with 10 μM DNA substrate (FIG. 5A) containing tethered thiols in the presence of 20 mM Tris, pH 7.4, 10% glycerol and 7.5 mM of divalent cations (MgCl2 or MnCl2 as indicated) for 20 min at 37° C. Reactions were stopped by the addition of 20 mM methylmethanethiosulfonate (capping reagent). Non-reducing gel loading buffer (100 mM Tris-HCl, pH 6.8, 4% SDS, 0.2% bromophenol blue, 20% glycerol) was added and samples were heated at 95° C. before loading onto 16% tricine gels (Invitrogen, Carlsbad, Calif.). Gels were stained with Microwave Blue according to manufacturer's recommendations (Protiga, Frederick, Md.).
DNA (20 nM) containing a [5′-^32P]-label on one strand and a thiol-modified cytosine on the other strand was added and reactions were capped with methylmethanethiosulfonate at 1 minute. Following capping, non-reducing gel loading buffer (100 mM Tris-HCl, pH 6.8, 4% SDS, 0.2% bromophenol blue, 20% glycerol) was added and samples were directly loaded on 16% tricine gels (Invitrogen, Carlsbad, Calif.). Gels were dried and reaction products were quantitated using the same way as described above.

Where [6] appears, read: read-out: inhibition activity, 3′-P, 21 bp substrate, Mg2+.
Setting [7] is: read-out: inhibition activity, 3′-P, 21 bp substrate, Mn2+.
[8] abbreviates: In vitro IC50 21 bp substrate ST, Mg2+.
[9] abbreviates: In vitro IC50 21 bp substrate ST, Mn2+.
Where [10] appears, read: Mn2+ as cofactor, U5 LTR DNA substrate.
[11] abbreviates: read-out: inhibition activity, preprocessed substrate, Mg2+.
Setting [12] is: read-out: inhibition activity, preprocessed substrate, Mn2+.

With `CC(C)c1cccc(=O)c(O)c1` [NSC 18804, β-thujaplicin], the half-maximal inhibitory concentration (IC50) in assay [1] (Mg2+), in assay [1] (Mn2+), in assay [2] (setting [8]), in assay [2] (setting [9]), in assay [3] (Mg2+) and in assay [3] (Mn2+) was above 333 µM in each case. Besides, the IC50 in assay [4] (Mg2+) and in assay [4] (Mn2+) was above 333 µM each time. The inhibition at 333 µM in assay [1] (setting [6]) is 20 to 40%; in assay [1] (setting [7]), 20 to 40%; in assay [2] it was 5 to 20%; in assay [3] (setting [11]), 5 to 20%; in assay [3] (setting [12]) it was 5 to 20%; in assay [4], below 5%. The “potency against HIV-1 integrase relative to the minimal tropolone core” value in assay [2] (setting [10]) is “failed to increase potency”. The “inhibition activity, ST, 21 bp substrate” value in assay [2] (Mn2+) was 2 (5% < inhibition activity < 20%). For the same molecule, in assay [4] (Mn2+), the “inhibition activity, disintegration” value is listed as 1 (inhibition activity ≦ 5%). Moreover, the “inhibition of integrase-DNA disulfide-crosslinking (in words)” value in assay [5] is “lack of inhibition”.
For `CC(C)c1ccccc(=O)c1O` [NSC 18805, α-thujaplicin], the IC50 in assay [1] (Mg2+), in assay [1] (Mn2+), in assay [2] (setting [8]), in assay [2] (setting [9]), in assay [3] (Mg2+) and in assay [3] (Mn2+) was above 333 µM each time. The IC50 in assay [4] (Mg2+) and in assay [4] (Mn2+) was above 333 µM throughout. Further, the inhibition at 333 µM in assay [1] (setting [6]) was 5 to 20%; in assay [1] (setting [7]), 5 to 20%; in assay [2] it was below 5%; in assay [3] (setting [11]), below 5%; in assay [3] (setting [12]), below 5%; in assay [4], below 5%. Further, the “potency against HIV-1 integrase relative to the minimal tropolone core” value in assay [2] (setting [10]) is recorded as “failed to increase potency”. The “inhibition activity, ST, 21 bp substrate” value in assay [2] (Mn2+) is 1 (inhibition activity ≦ 5%). Besides, the “inhibition activity, disintegration” value in assay [4] (Mn2+) is 1 (inhibition activity ≦ 5%).
As for `CC(C)c1ccc(O)c(=O)cc1` [NSC 43338, γ-thujaplicin], the IC50 in assay [1] (Mg2+), in assay [1] (Mn2+), in assay [2] (setting [8]), in assay [2] (setting [9]), in assay [3] (Mg2+) and in assay [3] (Mn2+) was above 333 µM throughout. The concentration for half-maximal inhibition (IC50) in assay [4] (Mg2+) and in assay [4] (Mn2+) was above 333 µM each time. The inhibition at 333 µM in assay [1] (setting [6]), in assay [1] (setting [7]), in assay [2], in assay [3] (setting [11]), in assay [3] (setting [12]) and in assay [4] was below 5% in each case. The “potency against HIV-1 integrase relative to the minimal tropolone core” value in assay [2] (setting [10]) was “failed to increase potency”. Besides, the “inhibition activity, ST, 21 bp substrate” value in assay [2] (Mn2+) is 1 (inhibition activity ≦ 5%). Also, the “inhibition activity, disintegration” value in assay [4] (Mn2+) is listed as 1 (inhibition activity ≦ 5%).
Regarding `CC(C)=CCc1ccc(=O)c(O)cc1C(C)C` [NSC 43339, nootkatin], the IC50 in assay [1] (Mg2+), in assay [1] (Mn2+), in assay [2] (setting [8]), in assay [2] (setting [9]), in assay [3] (Mg2+) and in assay [3] (Mn2+) was above 333 µM throughout. Further, the half-inhibitory concentration (IC50) in assay [4] (Mg2+) and in assay [4] (Mn2+) was above 333 µM in each case. The inhibition at 333 µM in assay [1] (setting [6]) was 5 to 20%; in assay [1] (setting [7]), 5 to 20%; in assay [2] it was 20 to 40%; in assay [3] (setting [11]), 5 to 20%; in assay [3] (setting [12]), 20 to 40%; in assay [4] it was below 5%. For the same molecule, in assay [2] (setting [10]), the “potency against HIV-1 integrase relative to the minimal tropolone core” value is “failed to increase potency”. For the same molecule, in assay [2] (Mn2+), the “inhibition activity, ST, 21 bp substrate” value is 3 (20% < inhibition activity < 40% at drug concentration of 333 μM). Further, the “inhibition activity, disintegration” value in assay [4] (Mn2+) is 1 (inhibition activity ≦ 5%).
Take `O=c1cccccc1O` [NSC 89303, tropolone]: the IC50 (in general, the concentration that gives 50% inhibition) is above 333 µM in assay [1] (Mg2+); above 333 µM in assay [1] (Mn2+); above 333 µM in assay [2] (IC50, inhibition of HIV-1 integrase (first screen), Mn2+ as cofactor, U5 LTR DNA substrate, 3′-P or ST not specified); above 333 µM in assay [2] (setting [8]); above 333 µM in assay [2] (setting [9]); above 333 µM in assay [3] (Mg2+). Also, the IC50 in assay [3] (Mn2+), in assay [4] (Mg2+) and in assay [4] (Mn2+) was above 333 µM in each case. Moreover, the inhibition at 333 µM in assay [1] (setting [6]) is below 5%; in assay [1] (setting [7]) it was 5 to 20%; in assay [2], 20 to 40%; in assay [3] (setting [11]) it was 5 to 20%; in assay [3] (setting [12]), 5 to 20%; in assay [4], below 5%. Further, in assay [2] (Mn2+), the “inhibition activity, ST, 21 bp substrate” value is 3 (20% < inhibition activity < 40% at drug concentration of 333 μM). In addition, in assay [4] (Mn2+), the “inhibition activity, disintegration” value is on record as 1 (inhibition activity ≦ 5%).
`C=C(C)C1CCc2c(c(C)cc(O)c(=O)c2O)C1` (stereo not drawn) [NSC 310618, manicol]: the IC50 in assay [1] (Mg2+) is 182 ± 42.5 µM; in assay [1] (Mn2+), 20.2 µM; in assay [2] (setting [8]), 71.1 ± 3.8 µM; in assay [2] (setting [9]), 11.7 ± 5.2 µM; in assay [3] (Mg2+), above 333 µM; in assay [3] (Mn2+), 25.8 µM. The figures for the IC50 in assay [4] (Mg2+) and in assay [4] (Mn2+) were above 333 µM and 98.3 µM, respectively. The inhibition at 333 µM in assay [3] (setting [11]) lay in the range of 20 to 40%; in assay [4], 5 to 20%.

These data come from patent US20100152301A1, “Treatment of Viral Infections” (GOVERNMENT OF THE US, AS REPRESENTED BY THE SECRETARY, …, priority 2005, published 2010).
